Measured values: publication PMC6647725 (Analytical and Bioanalytical Chemistry, 2019)

Tests used:
[1] = Plasma pharmacokinetics in mice after oral administration; format: in vivo, mouse (FVB); settings: FVB, po; mouse plasma, 10 mg/kg orally administered, t = 24 h; read-out: plasma concentration of representative sample
Method: This method was developed to support pharmacokinetic and tissue distribution studies of the CDK4/6 inhibitors in mice (FVB background). These studies were done separately for each drug. Animal housing and studies were conducted according to institutional guidelines complying with Dutch and European Union legislation (approval number from The Dutch Central Animal Testing Committee: AVD301002016595). […] Approximately 50 μL of blood was collected from the tip of the tail at several time points, except at the last one, when 500–1000 μL of blood was collected by cardiac puncture under isoflurane anesthesia. […] Mice were sacrificed by cervical dislocation and the organs were collected and weighed. Plasma was obtained using sodium heparin as anticoagulant after centrifugation at 9000g, 4 °C, for 6 min. When necessary, 10 μL of mouse plasma was diluted with 40 μL of human plasma. The tissue homogenates were prepared according to the procedure described in the “Tissue homogenate preparation” section. Plasma and tissue homogenate samples were stored at − 20 and − 70 °C, respectively, until the LC-MS/MS analysis was performed.

[2] = Stability in human plasma and its final extract (LC-MS/MS); format: in vitro ADME
Method: (§1) 50 μL of the sample (either from a preclinical study, calibration standard, or QC) was mixed with 25 μL of IS-working solution, followed by 150 μL of ACN for protein precipitation. Samples were vortex mixed and centrifuged at 23,100g for 10 min at 20 °C. An aliquot of 80 μL of supernatant was diluted with 120 μL of 10 mM ammonium bicarbonate in water:MeOH (1:1 v/v). The final extract was transferred to a glass vial with insert, and 10 μL was injected to the LC-MS/MS system for analysis.
(§2) The stability of each analyte was investigated in all the previously mentioned matrices. For plasma (both human and mouse), the stability was determined in triplicate at two concentration levels, QC L and QC H, whereas for mouse tissue homogenates only at QC M (except the brain in one stability condition). For all matrices, the following stability conditions were assessed: short term at room temperature (RT), long term at − 20 °C, and after 3 freeze-thaw (F/T) cycles at − 20 °C/RT. Furthermore, for tissue homogenates, the short-term stability in ice-water, long-term stability at − 70 °C, and F/T stability at − 70 °C/ice-water were also evaluated. Additionally, the stability in the final extract was tested. […] Lastly, the stability of the stock solutions at − 20 °C was investigated.

[3] = Stability in mouse kidney homogenate and its final extract; format: in vitro ADME; settings: nominal 50 ng/mL
Method: (§3) After weighing the complete organ, a volume of 3 mL of this solution was added to the liver and small intestine, 2 mL to the kidneys, and 1 mL to the brain and spleen. The tissue/BSA ratio (w/v) of the homogenates were approximately 0.4:1 for the brain and liver, 0.1:1 for the spleen, 0.2:1 for the kidneys, and 0.25:1 for the small intestine. All samples were shaken in the Fast Prep at 6.0 m/s during 60 s. The stability of each analyte was investigated in all the previously mentioned matrices. For plasma (both human and mouse), the stability was determined in triplicate at two concentration levels, QC L and QC H, whereas for mouse tissue homogenates only at QC M (except the brain in one stability condition). For all matrices, the following stability conditions were assessed: short term at room temperature (RT), long term at − 20 °C, and after 3 freeze-thaw (F/T) cycles at − 20 °C/RT. Furthermore, for tissue homogenates, the short-term stability in ice-water, long-term stability at − 70 °C, and F/T stability at − 70 °C/ice-water were also evaluated. Additionally, the stability in the final extract was tested. For this, the QC L and QC H final extracts from the plasma, brain, and spleen and the QC M final extract from the liver, kidney and small intestine were stored at 4–8 °C up to 3 days. Lastly, the stability of the stock solutions at − 20 °C was investigated.

[4] = Stability in mouse small intestine homogenate and its final extract; format: in vitro ADME; settings: nominal 50 ng/mL
Method: as §3

[5] = Stability in mouse spleen homogenate and its final extract; format: in vitro ADME
Method: as §3

[6] = Stability in mouse brain homogenate and its final extract; format: in vitro ADME
Method: as §3

[7] = Stability in mouse plasma and its final extract (LC-MS/MS); format: in vitro ADME
Method: as §1, §2

CDK4 = settings: cited from earlier work
[8] = final extract (listed under human plasma), 4–8 °C, 4 d, nominal 5 ng/mL
[9] = final extract (listed under human plasma), 4–8 °C, 4 d, nominal 150 ng/mL
[10] = human plasma, RT, 3 d, nominal 150 ng/mL
[11] = kidney homogenate, 3 F/T (− 70 °C, ice/water bath)
[12] = kidney homogenate, LT − 70 °C, 1 m
[13] = final extract (listed under small intestine homogenate), 4–8 °C, 2 d
[14] = small intestine homogenate, 3 F/T (− 70 °C, ice/water bath)
[15] = small intestine homogenate, RT, 3 h
[16] = small intestine homogenate, ice/water bath, 3 h
[17] = final extract (listed under spleen homogenate), 4–8 °C, 3 d, nominal 5 ng/mL
[18] = final extract (listed under spleen homogenate), 4–8 °C, 3 d, nominal 150 ng/mL
[19] = spleen homogenate, 3 F/T (− 70 °C, ice/water bath), nominal 50 ng/mL
[20] = spleen homogenate, LT − 70 °C, 1 m, nominal 50 ng/mL
[21] = spleen homogenate, RT, 3 h, nominal 50 ng/mL
[22] = spleen homogenate, ice/water bath, 3 h, nominal 50 ng/mL
[23] = brain homogenate, 3 F/T (RT, − 20 °C), nominal 50 ng/mL
[24] = brain homogenate, 3 F/T (− 70 °C, ice/water bath), nominal 50 ng/mL
[25] = brain homogenate, LT − 20 °C, 1 m, nominal 50 ng/mL
[26] = brain homogenate, LT − 70 °C, 1 m, nominal 50 ng/mL
[27] = brain homogenate, RT, 1 d, nominal 5 ng/mL
[28] = brain homogenate, RT, 1 d, nominal 150 ng/mL
[29] = brain homogenate, ice/water bath, 3 h, nominal 50 ng/mL
[30] = final extract (listed under brain homogenate), 4–8 °C, 3 d, nominal 150 ng/mL
[31] = final extract (listed under mouse plasma), 4–8 °C, 4 d, nominal 5 ng/mL
[32] = final extract (listed under mouse plasma), 4–8 °C, 4 d, nominal 150 ng/mL
[33] = mouse plasma, 3 F/T (− 20 °C/RT), nominal 5 ng/mL
[34] = mouse plasma, 3 F/T (− 20 °C/RT), nominal 150 ng/mL
[35] = mouse plasma, RT, 3 d, nominal 150 ng/mL
[36] = mouse plasma, − 20 °C, 3 m, nominal 5 ng/mL
[37] = mouse plasma, − 20 °C, 3 m, nominal 150 ng/mL

concentration at 24 h [1]: 74.3 ng/mL | Accuracy (% Bias) [2, 8]: 4.5% | Mean concentration [2, 8]: […] | Accuracy (% Bias) [2, 9]: 7.1% | Mean concentration [2, 9]: […] | Mean concentration ([2]; human plasma, 3 F/T (− 20 °C/RT), nominal 5 ng/mL): […] | Mean concentration ([2]; human plasma, 3 F/T (− 20 °C/RT), nominal 150 ng/mL): […] | Mean concentration ([2]; human plasma, RT, 3 d, nominal 5 ng/mL): […] | Accuracy (% Bias) [2, 10]: 6.2% | Mean concentration [2, 10]: […] | Mean concentration ([2]; human plasma, − 20 °C, 12 m, nominal 5 ng/mL): […] | Mean concentration ([2]; human plasma, − 20 °C, 12 m, nominal 150 ng/mL): […] | Mean concentration ([3]; final extract (listed under kidney homogenate), 4–8 °C, 2 d): […] | Mean concentration ([3]; kidney homogenate, 3 F/T (RT, − 20 °C)): […] | Accuracy (% Bias) [3, 11]: 3.6% | Mean concentration [3, 11]: […] | Mean concentration ([3]; kidney homogenate, LT − 20 °C, 1 m): […] | Accuracy (% Bias) [3, 12]: 5.5% | Mean concentration [3, 12]: […] | Accuracy (% Bias) ([3]; kidney homogenate, RT, 3 h): 1.7% | Mean concentration ([3]; kidney homogenate, RT, 3 h): 50.9 ng/mL | Mean concentration ([3]; kidney homogenate, RT, 1 d): 43.3 ng/mL | Mean concentration ([3]; kidney homogenate, ice/water bath, 3 h): […] | Accuracy (% Bias) [4, 13]: 4.7% | Mean concentration [4, 13]: […] | Mean concentration ([4]; small intestine homogenate, 3 F/T (RT, − 20 °C)): […] | Accuracy (% Bias) [4, 14]: 1.5% | Mean concentration [4, 14]: 50.7 ng/mL | Mean concentration ([4]; small intestine homogenate, LT − 20 °C, 1 m): 48.2 ng/mL | Mean concentration ([4]; small intestine homogenate, LT − 70 °C, 1 m): 48.3 ng/mL | Accuracy (% Bias) [4, 15]: 12.3% | Mean concentration [4, 15]: 56.4 ng/mL | Mean concentration ([4]; small intestine homogenate, RT, 1 d): 46.4 ng/mL | Accuracy (% Bias) [4, 16]: 3.1% | Mean concentration [4, 16]: […] | Accuracy (% Bias) [5, 17]: 10.7% | Mean concentration [5, 17]: […] | Accuracy (% Bias) [5, 18]: 4.2% | Mean concentration [5, 18]: […] | Mean concentration ([5]; spleen homogenate, 3 F/T (RT, − 20 °C), nominal 50 ng/mL): […] | Accuracy (% Bias) [5, 19]: 12.1% | Mean concentration [5, 19]: 56.1 ng/mL | Mean concentration ([5]; spleen homogenate, LT − 20 °C, 1 m, nominal 50 ng/mL): […] | Accuracy (% Bias) [5, 20]: 3.5% | Mean concentration [5, 20]: […] | Accuracy (% Bias) [5, 21]: 3.4% | Mean concentration [5, 21]: […] | Mean concentration ([5]; spleen homogenate, RT, 1 d, nominal 50 ng/mL): 46.5 ng/mL | Accuracy (% Bias) [5, 22]: 4.9% | Mean concentration [5, 22]: […] | Accuracy (% Bias) [6, 23]: 6.9% | Mean concentration [6, 23]: 53.4 ng/mL | Accuracy (% Bias) [6, 24]: 2.2% | Mean concentration [6, 24]: 51.1 ng/mL | Accuracy (% Bias) [6, 25]: 3.9% | Mean concentration [6, 25]: […] | Accuracy (% Bias) [6, 26]: 4.3% | Mean concentration [6, 26]: […] | Accuracy (% Bias) [6, 27]: 6.2% | Mean concentration [6, 27]: 5.3 ng/mL | Accuracy (% Bias) [6, 28]: 11.3% | Mean concentration [6, 28]: 167 ng/mL | Accuracy (% Bias) [6, 29]: 10.4% | Mean concentration [6, 29]: 55.2 ng/mL | Mean concentration ([6]; final extract (listed under brain homogenate), 4–8 °C, 3 d, nominal 5 ng/mL): […] | Accuracy (% Bias) [6, 30]: 8.7% | Mean concentration [6, 30]: […] | Accuracy (% Bias) [7, 31]: 8.1% | Mean concentration [7, 31]: […] | Accuracy (% Bias) [7, 32]: 5.1% | Mean concentration [7, 32]: […] | Accuracy (% Bias) [7, 33]: 4.3% | Mean concentration [7, 33]: […] | Accuracy (% Bias) [7, 34]: 7.6% | Mean concentration [7, 34]: […] | Mean concentration ([7]; mouse plasma, RT, 3 d, nominal 5 ng/mL): […] | Accuracy (% Bias) [7, 35]: 6.2% | Mean concentration [7, 35]: […] | Accuracy (% Bias) [7, 36]: 1.0% | Mean concentration [7, 36]: […] | Accuracy (% Bias) [7, 37]: 21.8% | Mean concentration [7, 37]: […]
SMILES: CCN1CCN(Cc2ccc(Nc3ncc(F)c(-c4cc(F)c5nc(C)n(C(C)C)c5c4)n3)nc2)CC1 [Abemaciclib]
